# Reference: publication PMC7504435, “Combined Protein- and Ligand-Observed NMR Workflow to Screen Fragment Cocktails against Multiple Proteins: A Case Study Using Bromodomains” (Molecules, 2020)
# Experiments:
# BPTF bromodomain = BPTF bromodomain (Homo sapiens, UniProt Q12830); experiment: 1H CPMG NMR deconvolution of hit mixtures, BPTF; assay type: binding; parameters: deconvolution of the hit mixtures using the non-fluorine-labeled bromodomains; made in house; host or cells: E. coli BL21(DE3); conditions: 10 µM protein, 100 µM ligand
# Description: (§1) The second step is a ^1H CPMG NMR deconvolution of the hit mixtures using the non-fluorine-labeled bromodomains. ^1H CPMG NMR employs a T2 filter to take advantage of the difference in transverse relaxation time between protein and small molecules to filter out the bound-state ligand(s). Unlike the PrOF NMR assay, a single protein is assayed in each experiment. A binding event is characterized by a decrease in ligand resonance intensity from the ligand alone spectrum to the ligand + protein spectrum. A hit is defined as a decrease in resonance intensity ≥ 20%. The ^1H CPMG NMR assay can be tuned by changing the protein or ligand concentration, filter length (Figure 1), or hit criteria depending on how stringent the desired hit rate is. The number of ^1H CPMG NMR deconvolution experiments is directly informed from the first step. If a mixture from the first step was only a hit for one protein, a single ^1H CPMG NMR deconvolution experiment is needed. If a mixture from the first step was a hit for both proteins, two separate ^1H CPMG NMR deconvolutions experiments are needed to determine the fragments that bind to each protein.
# (§2) ^1H CPMG NMR. ^1H CPMG NMR screen data were acquired on Bruker Avance III HD 500 with the 5 mm Prodigy TCI cryoprobe inverse cryoprobe (^1H 2500:1 S/N). Competition ^1H CPMG NMR data were acquired on Bruker 700 MHz Avance with a CryoProbe 5 mm TXI (^1H S:N with H2O suppression (2mM sucrose) - 900:1) and excitation sculpting water suppression. Proteins were present at 10 µM in 50 mM phosphate, 100 mM NaCl, pH 7.4 in 100% D2O. In separate NMR tubes, a ^1H CPMG NMR pulse was applied to a 1) mixture of ligands (individual ligands present at 100 µM for the screen and 50 µM for competition experiments) and 2) ligands + protein. […] For the competition experiments, τ was increased to 4.0 ms.
# PfGCN5 bromodomain [1] = molecular target: T1, PfGCN5 bromodomain (Plasmodium falciparum, UniProt Q8IB67); experiment: 1H CPMG NMR deconvolution of hit mixtures, PfGCN5; assay type: binding; conditions: 10 µM protein, 100 µM ligand
# Description: as §1, §2
# BRD4 D1 = conditions: previous screen; NC = noncompetitive with JQ1 in 1H CPMG competition; cited from earlier work
# PfGCN5 bromodomain [2] = molecular target: T1, PfGCN5 bromodomain; experiment: biochemical; assay type: binding
# Description: The screening workflow consists of two dependent steps: 1) a PrOF NMR screen of the 5FW-labeled proteins and a cocktail of 4–5 fragments in a single NMR tube; 2) a ^1H CPMG NMR binding assay to deconvolute the hit mixtures for each protein (Figure 1). In the first step, a dual-protein PrOF NMR spectrum was obtained in which 5FW-PfGCN5, 5FW-BPTF (~ 50 µM each) and mixtures of fragments (400 µM individual fragment) were present in the same NMR tube. […] Chemical shift perturbations indicating a ligand binding event were based on a prior cutoff of Δδ ≥ 0.030 ppm as the definition for a hit mixture. This cutoff was based on a statistical analysis of chemical shift perturbations from a prior BRD4 D1 fragment screen and are described further in the experimental section and in Table S2.
# PrOF NMR. PrOF NMR spectra were obtained on a Bruker Avance III HD 500 with the 5 mm Prodigy TCI inverse cryoprobe (^19F S:N 2000:1). […] The DMSO concentration for all experiments was kept constant at 1%. […] For the PrOF NMR screen, 5FW-BPTF and 5FW-PfGCN5 (35–40 µM in 50 mM phosphate, 100 mM NaCl, pH 7.4) were tested with mixtures of 4–5 fragments, where each individual fragment was 400 µM. […] A 10 Hz line broadening was applied. Titrations were fit to Equation (2), where p is the protein concentration and L is the ligand concentration. (2) Δδ=Δδmax × (Kd+P+L ) − (((Kd + P + L )^2) − 4PL)/2P
# A PrOF NMR binding event is characterized as a change in chemical shift (Δδ) from the protein-only spectrum to the protein + fragment mixture spectrum. We used a prior cutoff of Δδ ≥ 0.030 ppm as the definition of a hit mixture, based on a statistical analysis of chemical shift perturbations from a prior BRD4 D1 fragment screen.
# T1 sequence (Q8IB67 entry or part of it): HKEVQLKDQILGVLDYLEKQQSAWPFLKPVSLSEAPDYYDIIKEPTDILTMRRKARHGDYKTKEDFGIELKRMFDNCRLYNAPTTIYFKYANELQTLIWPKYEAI
SMILES,BPTF CPMG % decrease (BPTF bromodomain) [%],PfGCN5 CPMG % decrease (PfGCN5 bromodomain [1]) [%],further results
CC(C)(C)NC(=O)c1cnc2n(c1=O)CCS2 [Fragment F0550-0006],63,–,–
c1cc(OCC2CO2)ccc1OCC1CO1 (centres unmarked) [Fragment F0777-0005],54,–,–
CCOC(=O)c1c(NC(C)=O)sc(C)c1C [Fragment F0777-0038],100,100,Kd (BRD4 D1): 820 µM
O=C1CSCCN1 [Fragment F0848-0336],33,–,–
CCOC(=O)c1sc(NC(=O)C2CCOC2)cc1C (centres unmarked) [Fragment F0882-2747],54,63,Kd (BRD4 D1): 660 µM
Cc1nnc(SCC(=O)N2CCCCCC2)n(N)c1=O [Fragment F1847-0012],36,–,–
CCOCCCNc1ncnc2c1cnn2C [Fragment F1852-0063],38,–,–
C=CCNC1CCN(C)C1=O (centres unmarked) [Fragment F1905-0298],46,–,–
C1CC2NCCOC2C1.Cl (centres unmarked) [Fragment F1905-0651],75,–,–
CC(C)(C)OC(=O)N1CCC2CNCC21 (centres unmarked) [Fragment F1905-6593],–,21,–
O=C1CCCC2CN(Cc3ccccc3)CC12 (centres unmarked) [Fragment F1905-6609],–,50,–
CC12CCC3(C)OCC(CO)(CO1)N23 (centres unmarked) [Fragment F1983-0015],–,50,–
Cc1nnc(CN)o1.Cl [Fragment F2135-1033],23,–,–
Cc1cc(C)n(CC2CCNCC2)n1.Cl.Cl [Fragment F2145-0759],29,–,–
CC(C)C1NC(=O)CNC1=O (centres unmarked) [Fragment F2147-0955],–,50,–
CC(=O)NCC1COCCN1.CC(=O)NCC1COCCN1.Cl.Cl.Cl (centres unmarked) [Fragment F2147-1723],23,–,–
CC(C)(C)OC(=O)N1CCCC(C(=O)O)C1 (centres unmarked) [Fragment F2158-1186],29,–,–
Cc1csc(NC(=O)C2CCNCC2)n1.Cl [Fragment F2158-1471],40,–,–
Cc1onc(N)c1S(=O)(=O)N1CCC(C)CC1 [Fragment F2158-1788],–,40,–
CC(C)(C)OC(=O)N1CC(Oc2ncccn2)C1 [Fragment F2158-1792],54,68,–

SMILES,BPTF CPMG % decrease (BPTF bromodomain) [%],PfGCN5 CPMG % decrease (PfGCN5 bromodomain [1]) [%],further results
Cc1c(C(=O)O)n[nH]c1C1CC1 [Fragment F2185-0055],31,29,–
Cc1ccc(C)c(S(=O)(=O)N2CCCC2C(=O)O)c1 (centres unmarked) [Fragment F2189-0042],35,32,–
CC(C)Nc1nc2c(c(=O)[nH]c(=O)n2C)n1CC(O)CO (centres unmarked) [Fragment F2477-0016],34,–,–
CCCSc1nnc2[nH]c(=O)c(C)c(C)n12 [Fragment F2513-0609],46,–,–
CCCCC(=O)Nc1sc(C)c(C)c1C(N)=O [Fragment F2590-0203],53,–,–
CCCC(=O)Nc1cc2c3c(c1)CC(=O)N3CCC2 [Fragment F2666-0003],54,100,Kd (BRD4 D1): 840 µM
CCCCNc1nc2c([nH]1)c(=O)n(C)c(=O)n2C [Fragment F3176-0122],80,77,Kd (BRD4 D1): 2500 µM
CCCCSc1nnc(-c2cn(C)nc2OC)n1CC [Fragment F5003-0140],52,36,–
CCC(C)Sc1nnc(-c2cn(C)nc2OC)n1CC (centres unmarked) [Fragment F5003-0141],52,36,–
Cc1cc(-c2nnc(NC(=O)C3CC3)o2)nn1C [Fragment F5036-0073],55,–,Kd (BRD4 D1): 1200 µM
Cc1nnc(C2CCN(C(=O)c3ccsc3)CC2)s1 [Fragment F5496-0578],55,83,–
Cc1nc(NCCNC(=O)C(C)C)cc(N2CCCC2)n1 [Fragment F5626-0027],77,75,–
CCNc1cc(NCCNC(=O)CC(C)C)nc(C)n1 [Fragment F5626-0058],50,47,–
CSCCC(C)(O)CNC(=O)NC1CCOCC1 (centres unmarked) [Fragment F6089-9820],23,–,–
COC(CNC(=O)C1CN(C(=O)c2cc(C)on2)C1)OC [Fragment F6125-0675],32,–,–
O=C(NCCC(O)C1CC1)Nc1ccccc1Cl (centres unmarked) [Fragment F6190-0472],36,–,–
CC(C)(C)C(O)CCNC(=O)COc1ccc(F)cc1 (centres unmarked) [Fragment F6190-0594],48,–,–
CS(=O)(=O)NCC(c1ccoc1)N1CCSCC1 (centres unmarked) [Fragment F6353-5787],–,40,–
O=C1NCCN1C(=O)NCC(c1ccsc1)N1CCC1 (centres unmarked) [Fragment F6353-7315],23,–,–
COCC(=O)NC(C)Cc1ccc2c(c1)CCO2 (centres unmarked) [Fragment F6356-0896],–,25,–

SMILES,BPTF CPMG % decrease (BPTF bromodomain) [%],PfGCN5 CPMG % decrease (PfGCN5 bromodomain [1]) [%],further results
Cc1nc(N2CCCC2)nc(C)c1NS(C)(=O)=O [Fragment F6438-0300],–,42,–
CCC(=O)NCc1nc(C)cc(N2CCOCC2)n1 [Fragment F6438-0864],–,67,–
CC(C)CC(=O)NCc1nccc(N(C)C)n1 [Fragment F6438-1301],–,50,–
CC(C)C(=O)N1CCN(c2cnnc(N(C)C)c2)CC1 [Fragment F6438-1468],62,100,–
CC(C)CS(=O)(=O)C1CN(S(=O)(=O)C(C)C)C1 [Fragment F6442-1971],–,22,–
CCCCS(=O)(=O)N1CC(S(=O)(=O)CC(C)C)C1 [Fragment F6442-1973],–,26,–
COc1ccccc1C(CNC(=O)C1CC1)OC (centres unmarked) [Fragment F6451-0004],–,26,–
COC(C)(CNS(C)(=O)=O)c1cccc(Cl)c1 (centres unmarked) [Fragment F6452-1288],32,57,–
COc1ccc(C2CCCCN(S(C)(=O)=O)C2)cc1 (centres unmarked) [Fragment F6464-1254],69,33,–
Cc1cc(C(=O)N2CC(N3C(=O)CSC3=O)C2)n(C)n1 [Fragment F6473-4843],–,25,–
CC(C)(C)C(=O)N1CCSC(c2ccccc2)CC1 (centres unmarked) [Fragment F6481-0067],–,53,–
O=C(C1CC1)N1CCCC(Cc2nc(C3CC3)no2)C1 (centres unmarked) [Fragment F6497-0456],100,100,–
CC(C(=O)NCc1cnn2c1CCCC2)n1cccn1 (centres unmarked) [Fragment F6513-5793],72,49,–
O=C(C1CC=CCC1)N1CCC(c2ccc3c(c2)OCO3)C1 (centres unmarked) [Fragment F6518-4331],–,58,–
OCC1CCCN1c1cccc(C(F)(F)F)n1 (centres unmarked) [Fragment F6541-4533],48,–,–
Cc1ccc(S(=O)(=O)O)cc1.N#CC1CNCCO1 [Fragment F8880-7458],–,24,–
COCCCn1c(C(=O)O)cc2c(=O)n(C)c(=O)n(C)c21 [Fragment F9995-1074],–,41,–
"CCOC(=O)Nc1cc(-c2ccc(C)c(NS(C)(=O)=O)c2)nn2c(C)nnc12 [bromosporine, reference compound]",–,–,"PrOF NMR titration with 5FW-PfGCN5, result in words (PfGCN5 bromodomain [2]): slow exchange kinetics"
